Results as given in patent US8067447B2, “Modulators of glucocorticoid receptor, AP-1, and/or NF-κB activity and use thereof” (Bristol-Myers Squibb Company, priority 2006, dated 2011).
Like-named read-outs stand apart in the source and are kept apart here.

Experiments:
[1] = target: T1, human full-length glucocorticoid receptor (Homo sapiens, UniProt P04150); assay: Glucocorticoid Receptor Binding Assay (II), fluorescence polarization competitor kit (Fluormone GS1); details: cell lysate with recombinant human full-length GR, 1 nM Fluormone GS1, FP
T1 construct: a cell lysate containing recombinantly expressed human full-length glucocorticoid receptor; purchased PanVera Co., Madison, Wis; P2816
T1 sequence (P04150 1-777): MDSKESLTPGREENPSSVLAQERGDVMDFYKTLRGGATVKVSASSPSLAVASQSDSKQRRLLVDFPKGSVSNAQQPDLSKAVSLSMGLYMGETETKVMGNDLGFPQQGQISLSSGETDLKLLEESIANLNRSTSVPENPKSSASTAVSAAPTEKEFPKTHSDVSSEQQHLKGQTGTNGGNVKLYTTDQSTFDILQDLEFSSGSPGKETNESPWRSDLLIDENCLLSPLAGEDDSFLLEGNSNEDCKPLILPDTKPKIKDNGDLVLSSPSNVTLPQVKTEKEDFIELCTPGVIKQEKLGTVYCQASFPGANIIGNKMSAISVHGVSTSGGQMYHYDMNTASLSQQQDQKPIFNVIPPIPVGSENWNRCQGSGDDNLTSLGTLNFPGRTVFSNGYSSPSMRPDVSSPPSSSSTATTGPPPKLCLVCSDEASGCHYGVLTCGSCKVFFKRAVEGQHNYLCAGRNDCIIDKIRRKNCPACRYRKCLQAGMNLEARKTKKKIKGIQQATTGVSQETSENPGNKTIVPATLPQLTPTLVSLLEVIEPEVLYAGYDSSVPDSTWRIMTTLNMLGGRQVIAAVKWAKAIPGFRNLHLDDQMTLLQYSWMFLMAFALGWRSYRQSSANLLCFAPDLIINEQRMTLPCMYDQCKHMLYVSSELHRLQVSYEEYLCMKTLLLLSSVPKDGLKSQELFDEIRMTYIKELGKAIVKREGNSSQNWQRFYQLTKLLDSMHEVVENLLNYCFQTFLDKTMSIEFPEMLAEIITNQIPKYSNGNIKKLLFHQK
Experimental: In order to measure the binding of compounds on the glucocorticoid receptor a commercially available kit was used (Glucocorticoid receptor competitor assay kit, PanVera Co., Madison, Wis., P2816). Briefly, a cell lysate containing recombinantly expressed human full-length glucocorticoid receptor was mixed with a fluorescently labeled glucocorticoid (1 nM Fluormone GS1) in the presence or absence of test compound. After one hour at room temperature, the fluorescence polarization (FP) of the samples were measured.

[2] = test system: AP-1 induced transcriptional activity; assay: Cellular Transrepressional Assay (AP-1 luciferase reporter in A549 cells, PMA-activated); type: cell-based; details: A549 cells with 7x AP-1 luciferase reporter, 10 ng/ml PMA, read-out: AP-1 (EC50, nM) (Cellular Transrepression Assay)
Procedure, shortened: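 Stable A549 AP-1 (7× sites) luciferase reporter line stimulated with 10 ng/ml PMA plus test molecules (0.1 nM to 40 μM) for 7 h. Luminescence read after 10 min with luciferase reagent; EC50 from % decrease of PMA-induced signal.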

SMILES	Ki [1] [nM]	EC50 ([2]; Homo sapiens, A549, 7 h) [nM]	EC50 ([2]; 7 hours) [nM]
CC(C)(C(=O)Nc1nncs1)[C@@H](c1ccccc1)c1ccc2c(cnn2-c2ccc(F)cc2C#N)c1 [Example 97, (3S)-3-(1-(2-cyano-4-fluorophenyl)-1H-indazol-5-yl)-2,2-dimethyl-3-phenyl-N-(1,3,4-thiadiazol-2-yl)propanamide]	5.5	> 2500	
CC(CO)(C(=O)Nc1nncs1)C(c1ccccc1)c1ccc2c(cnn2-c2ccc(F)cc2)c1 (stereo not drawn) [Example 155, 3-(1-(4-Fluorophenyl)-1H-indazol-5-yl)-2-(hydroxymethyl)-2-methyl-3-phenyl-N-(1,3,4-thiadiazol-2-yl)propanamide]	4.3	1770	
CC(C)(CO)CNC(=O)C(C)(C)C(Cc1ccccc1)c1ccc2c(cnn2-c2ccc(F)cc2)c1 (stereo not drawn) [Example 134, 3-(1-(4-fluorophenyl)-1H-indazol-5-yl)-N-(3-hydroxy-2,2-dimethylpropyl)-2,2-dimethyl-4-phenylbutanamide]	6	> 10000	
CC(C)(C(=O)NC1CCNCC1)C(Cc1ccccc1)c1ccc2c(cnn2-c2ccc(F)cc2)c1 (stereo not drawn) [Example 133, 3-(1-(4-fluorophenyl)-1H-indazol-5-yl)-2,2-dimethyl-4-phenyl-N-(piperidin-4-yl)butanamide]	153	> 10000	
CC(C)/C=C(\c1ccc2c(cnn2-c2ccc(F)cc2)c1)C(C)(C)C(=O)Nc1nncs1 [Example 139, (E)-3-(1-(4-Fluorophenyl)-1H-indazol-5-yl)-2,2,5-trimethyl-N-(1,3,4-thiadiazol-2-yl)hex-3-enamide]	4.7	2500	
Cc1ccc(CC(c2ccc3c(cnn3-c3ccc(F)cc3)c2)C(C)(C)C(=O)NC2CCCC2O)cc1 (stereo not drawn) [Example 125, 3-(1-(4-fluorophenyl)-1H-indazol-5-yl)-N-(2-hydroxycyclopentyl)-2,2-dimethyl-4-p-tolylbutanamide]	9.9	> 10000	
CC(C)(C(=O)NC1CCCC1O)C(Cc1ccccc1)c1ccc2c(cnn2-c2ccc(F)cc2)c1 (single isomer, unassigned) [Example 124-isomerA]	7.5		> 10000
CC(C)(C(=O)Nc1nncs1)C(c1ccccc1)c1ccc2c(cnn2-c2ccc(C(=O)O)cc2)c1 (stereo not drawn) [Example 89, 4-(5-(3-(1,3,4-thiadiazol-2-ylamino)-2,2-dimethyl-3-oxo-1-phenylpropyl)-1H-indazol-1-yl)benzoic acid]	27	> 10000	
CC(C)(C(=O)NC1CCCC1)C(Cc1ccccc1)c1ccc2c(cnn2-c2ccc(F)cc2)c1 (single isomer, unassigned) [Example 130, N-cyclopentyl-3-(1-(4-fluorophenyl)-1H-indazol-5-yl)-2,2-dimethyl-4-phenylbutanamide]	6.1	> 10000	
CC(C)(C(=O)NC1CCCC1O)C(C)(C)c1ccc2c(cnn2-c2ccc(F)cc2)c1 (stereo not drawn) [Example 121, 3-(1-(4-fluorophenyl)-1H-indazol-5-yl)-N-(2-hydroxycyclopentyl)-2,2,3-trimethylbutanamide]	8.3	1730	

Now those with a lower Ki [1], led by results:

Ki [1] [nM]	EC50 ([2]; Homo sapiens, A549, 7 h) [nM]	EC50 ([2]; 7 hours) [nM]	SMILES
1.8	3.9		Cc1ccc(C(c2ccc3c(cnn3-c3ccc(F)cc3)c2)C(C)(C)C(=O)Nc2nncs2)cc1 (stereo not drawn) [Example 51, 3-(1-(4-fluorophenyl)-1H-indazol-5-yl)-2,2-dimethyl-N-(1,3,4-thiadiazol-2-yl)-3-p-tolylpropanamide]
3.1	23		COc1cc(F)ccc1-n1ncc2cc([C@H](c3ccccc3)C(C)(C)C(=O)Nc3nncs3)ccc21 [Example 96, (3S)-3-(1-(4-fluoro-2-methoxyphenyl)-1H-indazol-5-yl)-2,2-dimethyl-3-phenyl-N-(1,3,4-thiadiazol-2-yl)propanamide]
2.3	2.6		Cc1cccc(C(c2ccc3c(cnn3-c3ccc(F)cc3)c2)C(C)(C)C(=O)Nc2nccs2)c1 (stereo not drawn) [Example 41, 3-(1-(4-fluorophenyl)-1H-indazol-5-yl)-2,2-dimethyl-N-(thiazol-2-yl)-3-m-tolylpropanamide]
1.7	18		CCCC(c1ccc2c(cnn2-c2ccc(F)cc2)c1)C(C)(C)C(=O)Nc1nncs1 (stereo not drawn) [Example 46, 3-(1-(4-fluorophenyl)-1H-indazol-5-yl)-2,2-dimethyl-N-(1,3,4-thiadazol-2-yl)hexanamide]
2.9	2.4		CC(C)(C(=O)Nc1nccs1)C(c1cccc(F)c1)c1ccc2c(cnn2-c2ccc(F)cc2)c1 (stereo not drawn) [Example 43]
2	2		CC(C)C(C(=O)Nc1nncs1)C(c1ccccc1)c1ccc2c(cnn2-c2ccc(F)cc2)c1 (stereo not drawn) [Example 144, 2-((1-(4-fluorophenyl)-1H-indazol-5-yl)(phenyl)methyl)-3-methyl-N-(1,3,4-thiadiazol-2-yl)butanamide]
3		> 10000	CC(C)(C(=O)NC1CCCC1)C(Cc1ccccc1)c1ccc2c(cnn2-c2ccc(F)cc2)c1 (single isomer, unassigned) [Example 131, N-cyclopentyl-3-(1-(4-fluorophenyl)-1H-indazol-5-yl)-2,2-dimethyl-4-phenylbutanamide]
2.4	14		CC(C)(C(=O)Nc1nccs1)C(c1ccc(F)cc1)c1ccc2c(cnn2-c2ccc(F)cc2)c1 (stereo not drawn) [Example 44, 3-(4-fluorophenyl)-3-(1-(4-fluorophenyl)-1H-indazol-5-yl)-2,2-dimethyl-N-(thiazol-2-yl)propanamide]
2.4		45	O=C(Nc1nncs1)C(c1ccccc1)C(c1ccccc1)c1ccc2c(cnn2-c2ccc(F)cc2)c1 (single isomer, unassigned) [Example 145-isomerD, 3-(1-(4-fluorophenyl)-1H-indazol-5-yl)-2,3-diphenyl-N-(1,3,4-thiadiazol-2-yl)propanamide]
1.7	523		CC(C)(C(=O)Nc1nncs1)C(c1ccc2c(cnn2-c2ccc(F)cc2)c1)C1CC1 (stereo not drawn) [Example 47, 3-cyclopropyl-3-(1-(4-fluorophenyl)-1H-indazol-5-yl)-2,2-dimethyl-N-(1,3,4-thiadiazol-2-yl)propanamide]
1.5	2		O=C(Nc1nncs1)C(Cc1ccccc1)C(c1ccccc1)c1ccc2c(cnn2-c2ccc(F)cc2)c1 (stereo not drawn) [Example 146, 2-benzyl-3-(1-(4-fluorophenyl)-1H-indazol-5-yl)-3-phenyl-N-(1,3,4-thiadiazol-2-yl)propanamide]
1.6		9	CC(C(=O)Nc1nncs1)C(c1ccccc1)c1ccc2[nH]ncc2c1 (single isomer, unassigned) [151-diast A, 3-(1H-Indazol-5-yl)-2-methyl-3-phenyl-N-(1,3,4-thiadiazol-2-yl)propanamide]
1.1	705		CC(C)(C(=O)Nc1nncs1)C(Cc1ccccc1)c1ccc2c(cnn2-c2ccc(F)cc2)c1 (stereo not drawn) [Example 123, 3-(1-(4-fluorophenyl)-1H-indazol-5-yl)-2,2-dimethyl-4-phenyl-N-(1,3,4-thiadiazol-2-yl)butanamide]
1.3	4		CC(C)=CC(c1ccc2c(cnn2-c2ccc(F)cc2)c1)C(C)(C)C(=O)Nc1nncs1 (stereo not drawn) [Example 56, 3-(1-(4-fluorophenyl)-1H-indazol-5-yl)-2,2,5-trimethyl-N-(1,3,4-thiadiazol-2-yl)hex-4-enamide]
